In one experiment the target is Carbonic anhydrase 9 (Homo sapiens, UniProt Q16790). Put plainly: Binding affinity owards recombinant human transmembrane carbonic anhydrase IX.
For a further experiment, the target named is Carbonic anhydrase 4 (Homo sapiens, UniProt P22748). Put plainly: Binding affinity towards human membrane associated carbonic anhydrase IV.
For experiment [1], the target named is Carbonic anhydrase 5A, mitochondrial (Homo sapiens, UniProt P35218). Put plainly: Binding affinity towards recombinant human mitochondrial carbonic anhydrase V.
In a further experiment the target is Carbonic anhydrase 2 (Homo sapiens, UniProt P00918). As to the kind of experiment: Binding affinity towards human cytosolic carbonic anhydrase II.
The target of experiment [2] is Carbonic anhydrase 1 (Homo sapiens) (UniProt P00915). As to the kind of experiment: Activation constant towards human cytosolic carbonic anhydrase I; Activator.
Chain of Carbonic anhydrase 1 (Homo sapiens) (P00915 2-261 limits assumed): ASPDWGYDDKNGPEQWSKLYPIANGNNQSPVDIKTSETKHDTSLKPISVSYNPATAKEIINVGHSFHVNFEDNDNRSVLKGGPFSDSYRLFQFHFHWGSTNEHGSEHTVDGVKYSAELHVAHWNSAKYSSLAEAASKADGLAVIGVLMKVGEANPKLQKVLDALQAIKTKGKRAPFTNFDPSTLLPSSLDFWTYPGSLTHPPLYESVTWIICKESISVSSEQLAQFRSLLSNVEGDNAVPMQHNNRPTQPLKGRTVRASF

Chain of Carbonic anhydrase 5A, mitochondrial (P35218 whole entry): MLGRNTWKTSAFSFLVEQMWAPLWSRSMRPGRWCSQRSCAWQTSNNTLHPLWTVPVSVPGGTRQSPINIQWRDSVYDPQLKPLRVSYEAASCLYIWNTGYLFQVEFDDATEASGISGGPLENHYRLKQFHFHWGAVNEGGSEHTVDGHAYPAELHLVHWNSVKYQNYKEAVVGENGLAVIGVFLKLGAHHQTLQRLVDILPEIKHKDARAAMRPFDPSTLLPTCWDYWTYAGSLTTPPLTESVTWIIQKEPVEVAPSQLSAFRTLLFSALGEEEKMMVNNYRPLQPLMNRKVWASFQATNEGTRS
Chain of Carbonic anhydrase 4 (P22748 whole entry): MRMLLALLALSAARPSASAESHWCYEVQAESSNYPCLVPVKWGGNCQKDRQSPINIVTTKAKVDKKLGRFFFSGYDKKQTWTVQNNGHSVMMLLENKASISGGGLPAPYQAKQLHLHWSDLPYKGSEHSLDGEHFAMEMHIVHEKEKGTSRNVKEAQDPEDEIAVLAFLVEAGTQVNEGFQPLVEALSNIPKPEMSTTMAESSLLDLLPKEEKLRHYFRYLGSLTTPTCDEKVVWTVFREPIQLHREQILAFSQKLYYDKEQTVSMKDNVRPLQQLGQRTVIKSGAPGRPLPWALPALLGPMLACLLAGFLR

Turning to `CC(OP(=O)(O)O)C(N)C(=O)O` (configuration not stated), the Ki (usually the equilibrium dissociation constant of an inhibitor or competing ligand from its target) turned out to be 1230 µM at Carbonic anhydrase 9, 3180 µM at Carbonic anhydrase 4, 850 µM in experiment [1] and 1080 µM on Carbonic anhydrase 2. Further, the KA in experiment [2] came to 0.5 mM.

Take `N[C@@H](COP(=O)(O)O)C(=O)O` [DEXFOSFOSERINE]: the inhibition constant (Ki) on Carbonic anhydrase 9 was determined as 920 µM; on Carbonic anhydrase 4 it was 4260 µM; in experiment [1] it was 360 µM; at Carbonic anhydrase 2, 420 µM. This compound also returned a KA in experiment [2] of 0.1 mM.

In the case of `O=C(O)P(=O)(O)O` [FOSCARNET], in experiment [1], the Ki was determined as 41700 µM. Further, the KA in experiment [2] amounted to 0.012 mM.

Turning to `O=P(O)(O)CP(=O)(O)O` [MEDRONIC ACID], the Ki at Carbonic anhydrase 9 amounted to 860 µM; on Carbonic anhydrase 4 it was 5340 µM; in experiment [1] it was 730 µM; at Carbonic anhydrase 2, 1250 µM. This compound showed a KA in experiment [2] of 0.2 mM.

Turning to `O=C(O)C[C@H](NC(=O)CP(=O)(O)O)C(=O)O` [PALA], the inhibition constant (Ki) at Carbonic anhydrase 9 worked out at 2250 µM; on Carbonic anhydrase 4, 0.079 µM; in experiment [1], 370 µM; on Carbonic anhydrase 2 it was 7.8 µM. In experiment [2], this compound had a KA of 0.1 mM.

In the case of `O=P(O)(O)c1ccccc1` [PHENYLPHOSPHONIC ACID], the inhibition constant Ki is 2210 µM at Carbonic anhydrase 9, 5.4 µM on Carbonic anhydrase 4, 90 µM in experiment [1] and 0.099 µM at Carbonic anhydrase 2. Further, the KA in experiment [2] was 0.0001 mM.

These data come from ChEMBL document CHEMBL1142045, “Carbonic anhydrase inhibitors. Interaction of isozymes I, II, IV, V, and IX with organic phosphates and phosphonates” (Bioorg Med Chem Lett, 2005).
